Test results reported in patent US20170042908A1, “METHOD FOR TREATING GEOGRAPHIC ATROPHY ASSOCIATED WITH AGE-RELATED MACULAR DEGENERATION” (NATIONAL UNIVERSITY CORPORATION KAGAWA UNIVERSITY, priority 2014, published 2017).

Columns and labels:
geographic atrophy (GA) = test: Clinical study: GA area by fundus autofluorescence imaging (RegionFinder); format: in vivo, human
Procedure: (§1) A prospective, randomized, placebo-controlled study was performed for forty-eight eyes with GA which had not a recurrence of exudative AND for at least 6 months after receiving the treatment for exudative AND. The eyes of the treatment group received two drops of 0.15% isopropyl unoprostone (IU) three times a day for 54 weeks. Participants were examined before starting the study (baseline) and at 4, 8, 12, 24, 36, and 54 weeks to measure GA area, the change in GA, the GA enlargement rate and the logarithm of the minimum angle of resolution (logMAR) visual acuity. The placebo group eyes received the vehicle 3 times a day.
(§2) Two drops of the test drug or the placebo (vehicle) were administered at 5 minute intervals to the eyes three times a day, i.e. morning, afternoon, and night.
(§3) Study duration: 54 weeks.
(§4) The participants were examined to measure the following items at enrollment (baseline) and at 4, 8, 12, 24, 36 and 54 weeks.
Fundus autofluorescence images were obtained using BluePeak™ blue laser fundus autofluorescence (FAF) and confocal scanning laser ophthalmoscopy reflectance (OSLO). Hypofluorescent areas that reflect decreased autofluorescence were defined as GA areas. In detail, digital images obtained as above were calibrated and analyzed using RegionFinder™ software (version 2.4, Heidelberg Engineering, Germany) to define and quantify GA areas. Obtaining the fundus autofluorescence images, analyzing the obtained images and defining GA areas were performed according to the manuals of the equipment and software.
At each measurement time, the GA size, the change in GA area from the baseline and the GA enlargement rate from the baseline were determined.

[1] = Clinical study: logMAR visual acuity; format: in vivo, human; conditions: U group
Procedure: as §1, §2, §3, §4
Visual acuity was examined and the obtained value was converted the logarithm of the minimum angle of resolution (LogMar) to give logMar visual acuity.

CCCCCCCC(=O)CC[C@@H]1[C@@H](C/C=C\CCCC(=O)OC(C)C)[C@@H](O)C[C@H]1O [isopropyl unoprostone, 13,14-dihydro-15-keto-20-ethyl F2α isopropyl ester]
mean change in GA area at week 54 (geographic atrophy (GA); U group (24 eyes), 0.15% eye drops two drops three times a day, 54 weeks, change from baseline (baseline 2.71±2.03 mm^2), p<0.001 vs placebo): 0.44±0.39 mm^2 | enlargement of GA (conclusion) (geographic atrophy (GA); eye drops, 54 weeks, vs placebo): could suppress the enlargement of GA | change in geographic atrophy (GA) area (conclusion) (geographic atrophy (GA); patients who developed GA after treatment for exudative AMD, eye drops): statistically significant suppression | GA enlargement rate at 54 week (geographic atrophy (GA); representative U group case, person with typical AMD, left eye, 0.15% eye drops, two drops three times a day, vs baseline): 118% | GA area, difference between U and P groups (geographic atrophy (GA); throughout the study): no statistically significant difference | logMAR visual acuity, trend over time ([1]; over the study, no statistically significant difference over the baseline): tended to improve over time | logMAR visual acuity at week 4 ([1]; week 4, baseline 0.39±0.39, p=0.62 vs P group): 0.33±0.34 | logMAR visual acuity at week 54 ([1]; week 54, baseline 0.39±0.39, p=0.27 vs P group): 0.37±0.34
